Laboratory results as given in US7563774B2, “Combination of FBPase inhibitors and antidiabetic agents useful for the treatment of diabetes” (Metabasis Therapeutics, Inc., priority 2000, dated 2009).
pIC50: −log10 of the molar value.

Columns and labels:
Sprague-Dawley rats [1] = experiment: Drug metabolite levels, blood glucose and hepatic fructose 1,6-bisphosphate after Compound A p.o. in rats (Example E); type: in vivo, rat
Procedure: Compound A was administered by oral gavage to freely-feeding Sprague Dawley rats (250-300 g). The compound was prepared as a suspension in carboxymethylcellulose, and administered at a dose of 250 mg/kg. For the determination of liver metabolites, rats were serially sacrificed over the course of 24 hours after drug administration. Livers were freeze-clamped, homogenized in perchloric acid, neutralized, and then analyzed for Compound B by anion exchange HPLC.
For the determination of plasma metabolites, rats were instrumented with carotid catheters prior to oral dosing. Blood samples were withdrawn via the catheters at appropriate time points over the course of 8 hours post drug administration. Plasma was prepared from the blood samples by centrifugation, and plasma protein precipitated by the addition of methanol to 60%. Compound A metabolites were quantitated by reverse phase HPLC in the deproteinated plasma samples. A C18 column (1.4 cm×250 mm) was equilibrated with 10 mM sodium phosphate, pH 5.5 and eluted with a gradient from this buffer to acetonitrile. Detection was at 254 nm.
The effect of Compound A on blood glucose and hepatic fructose 1,6-bisphosphate levels was determined in 18-hour fasted Sprague-Dawley rats (250-300 g). Animals were dosed as described above. At appropriate time points post drug administration, rats were anesthetized with halothane and a liver biopsy (approx. 1 g) was taken, as well as a blood sample (2 mL) from the posterior vena cava. A heparin flushed syringe and needle was used for blood collection. The liver sample was immediately homogenized in ice-cold 10% perchloric acid (3 mL), centrifuged, and the supernatant neutralized with ⅓ rd volume of 3 M KOH/[…]. Following centrifugation and filtration, the neutralized extract was analyzed for fructose 1,6-bisphosphate content as described for isolated hepatocytes in Example C. Blood glucose was measured by means of a Hemocue analyzer (Hemocue Inc, Mission Viejo, Calif.).

rat hepatocytes = experiment: Glucose production and fructose-1,6-bisphosphate levels in rat hepatocytes (Example D); type: cell-based
Procedure: Hepatocytes were prepared from fed Sprague-Dawley rats (250-300 g) according to the procedure of Berry and Friend (Berry, M. N., Friend, D. S., 1969, J. Cell. Biol. 43, 506-520) as modified by Groen (Groen, A. K., Sips, H. J., Vervoom, R. C., Tager, J. M., 1982, Eur. J. Biochem. 122, 87-93). Hepatocytes (75 mg wet weight/mL) were incubated in 1 mL Krebs-bicarbonate buffer containing 10 mM Lactate, 1 mM pyruvate, 1 mg/mL BSA, and test compound concentrations from 0 to 500 μM. Incubations were carried out in a 95% oxygen, 5% carbon dioxide atmosphere in closed, 50-mL Falcon tubes submerged in a rapidly shaking water bath (37° C.). After 1 hour, an aliquot (0.25 mL) was removed, transferred to an Eppendorf tube and centrifuged. 50 μL of supernatant was then assayed for glucose content using a Sigma Glucose Oxidase kit as per the manufacturer's instructions.
Rat hepatocytes were isolated and incubated as described in Example C. Cell extracts, were analyzed for glucose content as described in Example C, and also for fructose 1,6-bisphosphate. Fructose 1,6-bisphosphate was assayed spectrophotometrically by coupling its enzymatic conversion to glycerol 3-phosphate to the oxidation of NADH, which was monitored at 340 nm. Reaction mixtures (1 mL) consisted of 200 mM Tris-HCl, pH 7.4, 0.3 mM NADH, 2 units/mL glycerol 3-phosphate dehydrogenase, 2 units/ml triosephosphate isomerase, and 50-100 μL cell extract. After a 30 minute preincubation at 37° C., 1 unit/ml of aldolase was added and the change in absorbance measured until a stable value was obtained. 2 moles of NADH are oxidized in this reaction per mole of fructose 1,6-bisphosphate present in the cell extract.

[2] = tested on: gluconeogenesis in rat hepatocytes; experiment: Inhibition of gluconeogenesis in rat hepatocytes (Example C); type: cell-based; details: Hepatocyte, glucose production from lactate/pyruvate, 1 hour
Sprague-Dawley rats [3] = experiment: Glucose lowering, hepatic and plasma drug levels after intraperitoneal dosing of normal fasted rats (Example F); type: in vivo, rat; details: 1 hour post injection
Procedure: Sprague-Dawley rats (250-300 g) were fasted for 18 hours and then dosed intraperitoneally either with saline or FBPase inhibitor. The vehicle used for drug administration was 10 mM bicarbonate. One hour post injection, rats were anesthetized with halothane, and liver and blood samples were taken and processed as described in Example E. The neutralized liver extracts were analyzed for FBPase inhibitor content by HPLC. A reverse phase YMC ODS AQ column (250×4.6 […]) was used and eluted with a gradient from 10 mM sodium phosphate pH 5.5 to 75% acetonitrile. Absorbance was monitored at 310 nm. Glucose was measured in the blood sample as described in Example C. Plasma was prepared by centrifugation and extracted by addition of methanol to 60% (v/v). The methanolic extract was clarified by centrifugation and filtration and then analyzed by HPLC as described above.

[4] = single 250 mg/kg dose p.o., 18-hour fasted rats

liver metabolites (Sprague-Dawley rats [1]; Compound A 250 mg/kg p.o., over 24 hours) | Liver conc. (Sprague-Dawley rats [3]) [nmol/g] | Compound | plasma metabolites (Sprague-Dawley rats [1]; Compound A 250 mg/kg p.o., over 8 hours) | duration of blood glucose lowering (Sprague-Dawley rats [1]; [4]) | hepatic fructose-1,6-bisphosphate levels (Sprague-Dawley rats [1]; [4]) | intracellular fructose 1,6-bisphosphate (rat hepatocytes) | pIC50 (rat hepatocytes; Hepatocyte, read-out: IC50, inhibition of glucose production) | pIC50 [2]
efficiently converted to Compound B |  | CC(=O)OC[C@H]1O[C@@H](n2cnc(C(N)=O)c2Br)[C@H](OC(C)=O)[C@@H]1OC(C)=O [Compound A] | rapidly deacetylated at all three positions | approximately 8 hours | elevation of hepatic fructose-1,6-bisphosphate levels | dose-dependent elevation | 4.30 | 4.30
 | 38.4 | CCc1cc(F)c(N)c2nc(-c3ccc(P(=O)(O)O)o3)n(CC(C)C)c12 [Compound E] |  |  |  | dose-dependent elevation |  | 
